From patent US9511074B2, “Methods of treating disorders associated with protein polymerization” (UNIVERSITY OF PITTSBURGH—OF THE COMMONWEALTH SYSTEM OF …, priority 2009, dated 2016)

Key:
[1] = tested on: ATZ in the HTO/Z cell line; assay: Steady state levels of ATZ in the HTO/Z cell line (immunoblot of insoluble and soluble fractions); type: cell-based, human; settings: HTO/Z cells
Excerpt: (§1) Cell Lines The human epidermal HeLa cell line with doxycycline-regulated expression of ATZ (HTO/Z) has been described previously (1). HTO/M and HTO/Saar are HeLa cell lines with doxycycline-regulated expression of wild type AT and the AT Saar variant, respectively (1). A murine embryonic fibroblast cell line (MEF) with targeted disruption of Atg5 (2) was engineered for stable expression of ATZ using the previously described pRc/RSV-ATZ expression plasmid (3). A wild type MEF cell line was also engineered for stable expression of ATZ in the same way to serve as control. For experiments with CBZ, the inducible cell lines were cultured in the absence of doxycycline for at least 4 weeks for maximal expression of AT. The cells were then subcultured into separate monolayers in fresh complete growth medium and incubated for 48 hours in the absence or presence of CBZ or rapamycin (RAP). CBZ or RAP were added to the growth medium. The duration of incubation with CBZ was determined to be optimal at 48 hours based on experiments in which the duration was varied from 12 to 72 hours. Doses of CBZ were based on previous studies of its effects in cell lines (5,6). Doses of RAP were based on previous positive effects on autophagic disposal of polyglutamine-repeat proteins (7). After the incubation cells were homogenized and cell homogenates separated into insoluble and soluble fractions according to our previously established technique (8). Samples of 20 μgs each were subjected to immunoblot analysis for AT, BiP and GAPDH.
For immunoblot analysis to detect AT, GAPDH or LC3, cells were lysed in 50 mM Tris-HCl, 150 mM NaCl, 1% NP-40, pH 8.0. Protein levels were quantified using the BCA protein assay (Pierce Biotechnology, Rockford, Ill.). 10-50 μg samples were loaded onto 7.5% precast gels. PVDF membranes were blocked in TBS, 0.5% Tween 20 (TBST), 5% milk and then incubated with primary antibody in 5% milk TBST solution. Horseradish peroxidase anti-goat Ig or anti-mouse Ig (Jackson Labs, Bar Harbor, Me.) were used as secondary antibodies in TBST. Blots were visualized with Super Signal West Dura or West Femto from Pierce.

[2] = tested on: wild type AT in the HTO/M cell line; assay: Steady state levels of wild type AT in the HTO/M cell line (immunoblot); type: cell-based, human; settings: FIG. 1D
Excerpt: as §1, with “Doses of RAP were based on previous positive effects on autophagic disposal of polyglutamine-repeat proteins (7). After the incubation cells were homogenized and cell homogenates separated into insoluble and soluble fractions according to our previously established technique (8). Samples of 20 μgs each were subjected to immunoblot analysis for AT, BiP and GAPDH.” left out
For immunoblot analysis to detect AT, GAPDH or LC3, cells were lysed in 50 mM Tris-HCl, 150 mM NaCl, 1% NP-40, pH 8.0. Protein levels were quantified using the BCA protein assay (Pierce Biotechnology, Rockford, Ill.). […]

PiZ mice = assay: Hepatic fibrosis in PiZ mice (Sirius Red, hepatic hydroxyproline); type: in vivo, mouse
Excerpt: Transgenic Mice PiZ mice that have been bred into the C57/BL6 background have been described previously (1). For the second and third series of experiments with CBZ we used PiZ mice that were re-derived onto the FVB/N background for a move into a new animal facility. The transgene that was used to generate the PiZ mouse is a genomic fragment of DNA that contains the coding regions of the ATZ gene together with introns and ˜2 kilobases of upstream and downstream flanking regions (10). […] In this perspective it is not an exact phenocopy of the classical form of AT deficiency. In particular it cannot be a model for the loss-of-function mechanisms associated with the classical form of AT deficiency. It is known to have abundant expression of ATZ in hepatocytes and other cell types that express ATZ in humans (11). In the liver there are abundant ATZ-containing intrahepatocytic globules and inflammation that is characteristic of what is seen in the human liver (11,12). […] Taken together, these observations indicate that the PiZ mouse is an appropriate model for the gain-of-toxic function mechanism that is responsible for liver damage in the classical form of AT deficiency. Indeed, the fact that these mice are endowed with endogenous AT function and therein normal levels of AT in the serum and body fluids make them an even more ‘pure’ model for liver damage by gain-of-toxic function. PiZ×GFP-LC3 mice, which generated green fluorescent autophagosomes, have been described previously (2). PiZ×IKKβ.hep were generated by mating of PiZ to IKKβ.hep, which has conditional hepatocyte-specific disruption of NF.B activation (M. Karin, 17). There is increased injury in the liver of these mice as evidenced by the hepatic hydroxyproline content, 153.3% of that in the PiZ mouse (FIG. 7).
Histology Sections of liver tissue were stained with hematoxylin and eosin, PAS, PAS after diastase treatment, TUNEL, PCNA, Ki67 and Sirius Red using standard techniques (18). Previous methods for staining with antibody to smooth muscle actin were used (19). Each was examined by the pathologist (GM) who was completely blinded to the experimental protocol. Sections of liver tissue were also stained with goat anti-human AT followed by donkey anti-goat Cy3 to detect AT-containing intracellular globules. Finally sections of liver tissue were stained with anti-GFP to optimize the detection of green fluorescent autophagosomes. The number of inflammatory nodules, AT-containing globules and autophagosomes were each quantified blindly by counting cells in 6 microscopic fields of 10 different sections for each liver. The number of nuclei, as determined by Hoechst staining, was used to exclude the possibility that different numbers of cells were counted in liver sections from mice treated with CBZ as compared to controls. Hepatic hydroxyproline concentration was determined by a well-established protocol (20,21).
Therapeutic regimens For the initial series of experiments in mice in vivo, the dose of 250 mg/kg/day for CBZ was based on previous studies of its biological effects in mice (22,23). […] CBZ was administered in DMSO by gavage once per day. Control mice were given an equivalent volume of DMSO by gavage. In a second series of experiments, doses of 200, 100 and 50 mg/kg/day of CBZ were administered for 6 weeks. The dose and route of administration of RAP, 2 mg/kg/day by intraperitoneal injection for 2 weeks, was based on previous studies that have shown activation of hepatic autophagy (24).

APP-PS1 mouse = assay: Plaque load and Aβ ELISA in APP-PS1 mouse model of AD; type: in vivo; settings: APP-PS1 mice, 200 mg/kg/day gavage, 5 doses per wk, 3 wks
Excerpt: The APP-PS1 mouse model of AD is associated with accelerated amyloid deposition with plaques resembling AD in humans starting to appear at 12 weeks of age (12) and progressive behavioral changes starting at 6 months of age (55, 56). Only a limited number of mice were available at the ideal age, 9 wks, at the time of the study, so the pilot study was very small. 9-12 wks of age was selected as the ideal age because it represents the age with the earliest consistent appearance of AP deposition in APP-PS1 mice. Mice were treated by orogastric gavage with CBZ 200 mg/kg/day, 5 doses per wk, for 3 wks; n=2 for CBZ and n=4 for vehicle (DMSO). Brain sections were stained with X-34, antibodies to Aβ1-40 and Aβ1-42 to determine plaque load using techniques as described previously (57).

[3] = 48 hours incubation, immunoblot

NC(=O)N1c2ccccc2C=Cc2ccccc21 [CBZ, 5H-dibenz [b,f]azepine-5-carboxamide]
minimal effective dose on ATZ levels [1]: 3 µM
steady-state levels of ATZ, insoluble fraction [1, 3]: marked decrease
steady-state levels of ATZ, soluble fraction [1, 3]: marked decrease
wild-type AT levels [2]: did not affect
hepatic hydroxyproline concentrations (PiZ mice; 200 mg kg-1 day-1 for 6 weeks): decreased
hepatic fibrosis (Sirius red) (PiZ mice; 250 mg kg-1 for 2 weeks, FIG. 4E): marked decrease
decrease of hepatic hydroxyproline content (PiZ mice; PiZ mice vs untreated PiZ, FIG. 7): 46.7%
lowest effective dose (hepatic hydroxyproline) (PiZ mice; PiZ mice, 6 weeks): 200 mg/kg/day
hepatic hydroxyproline concentration (PiZ mice; PiZ mice, mean±SD, control 2.27±1.02, P=0.0074): 1.21 ± 0.7 µg/mg dry weight
soluble and insoluble Aβ1-40 and Aβ1-42 by ELISA (APP-PS1 mouse): trend toward lower values
plaque load (X-34, anti-Aβ1-40, anti-Aβ1-42 staining) (APP-PS1 mouse; n=2): marked reduction
